Measured values published in US20070122908A1, “Molecular Delivery to Cells Using Aspirin-Related Compounds” (UNIVERSITY OF SOUTH FLORIDA, priority 2005, published 2007).

How the values were obtained:
B16-F10 cells [1] = assay: Delivery of calcein to B16-F10 cells with or without electroporation, spectrofluorometric reading of cell lysate; type: cell-based, mouse
Protocol: The effects of salicylic acid (“SA”) on the delivery of calcein to B16-F10 cells using electroporation was studied. Three identical experiments were carried out. […] All cells were exposed to 120 μM calcein. In addition, cells in some samples were exposed to one of three different concentrations of salicyclic acid (1 mM, 5 mM, or 10 mM) with pH values of 6.70, 6.32, and 3.85, respectively. Pulses with one of four different field strengths were also applied (500, 750, 1000, or 1385 V/cm) to certain samples. Salicyclic acid concentration and field strength were experimental variables; however, some cells were not exposed to applied fields or salicyclic acid for comparison/control purposes.
Delivery of calcein using aspirin (acetylsalicylic acid or “ASA”) was studied. […] The same range of pulsing conditions was used and the variables were identical for the sample treatment.
Calcein delivery by electroporation using acetic acid (“AA”) as an effector was studied. The set of 3 replicate experiments included three concentrations of AA, each with a different pH (4.40, 5.36, or 6.42). The pH values of the three solutions of acetic acid were matched to those of ASA for the purpose of determining if AA is the derivative in ASA that enhances the delivery of calcein. The three concentrations of the AA solutions in PBS were similar, which was about 0.15%, and varied slightly in order to establish the desired pH value. In addition, one of three electric field strengths were applied to cells (500, 750. or 1000 V/cm). Some cells were not exposed to applied fields or any concentration of AA for purposes of comparison and control.
B16-F10 mouse melanoma cells (ATCC#:CRL-6475) were obtained and grown in McCoy's Media (Cellgro Mediatech, Inc., Herndon. VA), adjusted to contain 10% fetal bovine serum (Cellgro Mediatech, Inc.) and (25 mg) gentamicin 50 mg/mL (Mediatech, Inc.) and were incubated in 5% CO2 at 37° C. Serum was essential for many reasons. It provided hormonal factors that stimulated cell growth and function. It also contains essential proteins, amino acids, minerals, and lipids. Gentamicin is an antibiotic used as a preventative measure to help reduce microbial growth and contamination.
Cells were prepared for experiments by first harvesting by trypsinization and then washing 3 times by centrifugation. Cells were centrifuged (5810R, Eppendorf, Westbury, N.Y.) at 220× g for 5 minutes at 37° C. and resuspended in approximately 2.5 ml of PBS for each wash. A sample of cells was then diluted in 0.9% sodium chloride (APP, Schaumburg, Ill.) and 0.4% trypan blue stain (Cellgro Mediatech, Inc.). Trypan blue is an indicator in which the membranes of non-viable cells are penetrated and can be distinguished from the viable cells. Using a hemacytometer (Hausser Scientific, Horsham, Pa.), the viable and nonviable cells were counted. The number of cells per milliliter was computed by multiplying the number of cells counted per square millimeter×the dilution (when used)×10,000 (conversion factor).
Experiments were conducted using 48-well polystyrene tissue culture plates (BD Falcon. Franklin Lakes, N.J.). Each well held approximately 1.4 ml of liquid with a surface area of 0.75 cm^2. The depth and diameter of each well was 18 mm and 10 mm, respectively.
Under aseptic conditions, 150μl of the sterile gelatin solution was added to each well and let stand for 1 hour. The gelatin was then aspirated from each of the wells and air dried for 5 minutes. 500μl of McCoy's Media was added to the treated wells in addition to 7.5×10^4 viable cells and incubated at 37° C. for 18 hours before treatment.
The electrode shown in FIG. 2 was specially designed for all experimentation in these studies and was similar to the design mentioned above. The electrode consisted of 6 stainless steel electrodes, equally spaced at 60° intervals around a 0.7 cm diameter circle.

B16-F10 cells [2] = conditions: mouse, pH 4.4
Protocol: The trypan blue test was used to determine membrane integrity. Trypan blue dye will only penetrate into cells that have porous membranes. […] The protocol used was similar to the methods described for the delivery of calcein. After one hour of exposure at 37° the cells were washed three times with 500 μl aliquots of PBS. Liquid from the last wash was carefully aspirated, and then filled with 500μl of growth media.
For the purpose of this study, optimal testing conditions were used to treat B16-F10 cells to conclude the extent of reversible permeation.
Due to the large surface area of the wells, the cells were physically counted by observing 7 out of 21 fields of view along the horizontal diameter of each well at a magnification of 400× (see FIG. 5). The recovery of the membranes after exposure to each treating condition was expressed as a percentage of live cells remaining after each hour.
In order to distinguish the viable cells from the dead, a 0.4% trypan blue solution in PBS was used. 150 μl of the solution was added to each well for 1 minute, and then the cells were counted using the described method. Each test condition was studied at 1 hour intervals ranging from 1 hour to 4 hours. In addition, membrane recovery was examined 24 hours post treatment.

Question: For `O=C(O)c1ccccc1O` [SA, salicylic acid], which “calcein delivery compared to samples exposed to calcein alone” value (B16-F10 cells [1]; 1, 5 or 10 mM SA (pH 6.70, 6.32, 3.85), 120 μM calcein, no applied electric field) is on record?
Answer: Its value is “did not augment the delivery”.

Question: What about the “fluorescent magnitude compared to samples treated with calcein and pulses (no salicylic acid)” value (B16-F10 cells [1]; 1, 5 or 10 mM SA, 120 μM calcein, electrical pulses 500-1385 V/cm) of the same compound?
Answer: Its value is “not significantly higher”.

Question: What does the source list for `CC(=O)O` [AA, acetic acid]?
Answer: fluorescence magnitude compared to samples not exposed to AA (B16-F10 cells [1]; AA about 0.15% in PBS, pH 5.36 or 6.42, with or without pulses): failed to show a significant increase; fluorescent data compared to AA alone (no pulses) (B16-F10 cells [1]; AA lowest pH solution (pH 4.40) in combination with electric fields): even higher; mean fluorescence magnitude (B16-F10 cells [1]; AA pH 4.40, 500 V/cm): 12.77; increase in fluorescence magnitude vs samples not exposed to AA at same field (B16-F10 cells [1]; AA pH 4.40, 500 V/cm, p<0.0001): 3 fold; increase in fluorescence magnitude vs samples not exposed to AA at same field (B16-F10 cells [1]; AA pH 4.40, 750 V/cm, p=0.0002): 2.25 fold; increase in fluorescence magnitude vs samples not exposed to AA at same field (B16-F10 cells [1]; AA pH 4.40, 1000 V/cm, p<0.0001): 3.5 fold; increase in mean fluorescence vs control (no AA or pulses) (B16-F10 cells [1]; AA pH 4.40 alone, no pulses): 8.2 fold; mean fluorescence magnitude (B16-F10 cells [1]; AA pH 4.40 alone, no pulses): 1.04; decline in the number of cells with intact membranes (B16-F10 cells [2]; 1 h): 17%; cells that excluded trypan blue dye (B16-F10 cells [2]; 24 h): 86%; cells with intact membranes (B16-F10 cells [2]; 24 h): 90%; average membrane integrity (B16-F10 cells [2]): 80-95%

Question: How did the “fluorescence magnitude compared to calcein alone (no ASA)” value (B16-F10 cells [1]; 1 mM or 5 mM ASA alone (pH 6.39, 5.40), no pulses) turn out when `CC(=O)Oc1ccccc1C(=O)O` [ASA, acetylsalicylic acid] was run?
Answer: The value was “did not result in a significant increase”.

Question: And the “increase in fluorescence magnitude relative to calcein at same field (no ASA)” value (B16-F10 cells [1]; 10 mM ASA, 500 V/cm, p<0.0001)?
Answer: The value was 3.7 fold.

Question: What about the “increase in fluorescence magnitude relative to calcein at same field (no ASA)” value (B16-F10 cells [1]; 10 mM ASA, 750 V/cm, p 0.0011) of the same compound?
Answer: The value was 3.82 fold.

Question: And the “increase in fluorescence magnitude relative to calcein at same field (no ASA)” value (B16-F10 cells [1]; 10 mM ASA, 1000 V/cm, p 0.0014)?
Answer: The value was 3.57 fold.

Question: And the “increase in fluorescence magnitude relative to calcein at same field (no ASA)” value (B16-F10 cells [1]; 10 mM ASA, 1385 V/cm, p 0.0066)?
Answer: Its value is 3.18 fold.

Question: And the “increase in internalized calcein vs control (calcein, no ASA or pulses)” value (B16-F10 cells [1]; 10 mM ASA, no pulses, p<0.0001)?
Answer: The value was 5 fold.

Question: And the “mean fluorescence magnitude compared to samples exposed to electric fields alone (no ASA)” value (B16-F10 cells [1]; 1 and 5 mM ASA, with electric fields)?
Answer: Its value is “not significantly different”.

Question: What about the average fluorescent magnitude (B16-F10 cells [1]; calcein in 10 mM ASA (pH 4.40), no pulses) of the same compound?
Answer: Its average fluorescent magnitude is 4.28 (SEM=0.63).
